Results from the supplement of paper PMC10949913.
Several values for one entry are separate records, joined by “and”; a condition that tells them apart may be missing. Equal entries are not always repeated.

How the values were obtained:
Conditions in all cases: 48 h
CU-ACC2 [1] = experiment: AC50 viability; higher = less potent
Outline: (§1)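 Cells from three adrenocortical carcinoma lines were seeded at 500–1,000 cells/well in 5 µL medium in 1,536-well plates. Each library compound was added as 23 nL at 11 concentrations, and after 48 h CellTiter-Glo was added for 15 minutes at room temperature before reading luminescence. Plate-wise normalisation to vehicle and empty-well controls preceded curve fitting. AC50 and area under the curve were calculated only for inhibitory or non-responding curve classes.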

CU-ACC1 [2] = experiment: AC50 viability; higher = less potent
Outline: as §1

CU-ACC2 [3] = experiment: area under concentration-response curve (viability) (AUC (a.u.)); higher = less active
Outline: as §1

CU-ACC1 [4] = experiment: as above
Outline: as §1

NCI-H295R [5] = experiment: as above
Outline: as §1

NCI-H295R [6] = experiment: AC50 viability; higher = less potent
Outline: as §1

Row | Compound | AC50 viability (CU-ACC2 [1]) [µM] | AC50 viability (CU-ACC1 [2]) [µM] | area under concentration-response curve (CU-ACC2 [3]) | area under concentration-response curve (CU-ACC1 [4]) | area under concentration-response curve (NCI-H295R [5]) | AC50 viability (NCI-H295R [6]) [µM]
1 | NCCCCNCCCN | 33.2 | 16.6 | 422 | 312 | 107 | –
2 | C/C=C/C/C=C/CCC(=O)[C@H]1O[C@H]1C(N)=O | 23.5 | 20.9 | 554 | 474 | – | –
3 | CCCNC(=O)[C@H]1O[C@@H]1C(=O)N[C@H](C(=O)N1CCC[C@H]1C(=O)OC)C(C)CC (some centres undefined) | 18.6 | 16.6 | 504 | 449 | 494 | –
4 | Oc1ccc2ccccc2c1SSc1c(O)ccc2ccccc12 | 23.5 | 41.7 | 583 | 487 | – | –
5 | COC1=CC(c2cc3ccccc3[nH]2)=N/C1=C/c1[nH]c(C)cc1C | 33.2 | 37.2 | 495 | 410 | – | –
6 | O=C(CCCCCCC(=O)Nc1ccc([C@H]2O[C@@H](CSc3nc(-c4ccccc4)c(-c4ccccc4)o3)C[C@@H](c3ccc(CO)cc3)O2)cc1)NO | 3.4 | 2.7 | 573 | 488 | 492 | –
7 | C[C@]12Cc3cn[nH]c3C[C@@H]1CC[C@@H]1[C@@H]2CC[C@@]2(C)[C@H]1CC[C@]2(C)O | 0.263 | 0.0132 | 214 | 335 | 312 | –
8 | C=C1/C(=C\C=C2/CCC[C@]3(C)[C@@H]([C@H](C)CCCC(C)(C)O)CC[C@@H]23)C[C@@H](O)C[C@@H]1O | 14.8 | 16.6 | 329 and 416 | 408 and 314 | 364 | –
9 | CC(C)Nc1cc(-c2c[nH]c(C(=O)N[C@H](CO)c3cccc(Cl)c3)c2)c(Cl)cn1 | 18.6 | 23.5 | 545 | 467 | – | –
10 | CC1=C(/C=C/C(C)=C/C=C/C(C)=C/C(=O)Nc2ccc(O)cc2)C(C)(C)CCC1 | 0.295 | 0.235 | 170 | 232 | 179 | –
11 | Cc1c(NC(=O)c2cc(C(N)=O)nc3cc(F)ccc23)c(C(F)(F)F)nn1Cc1ccc(C#N)cc1 | 10.5 | 1.66 | 443 | 460 | 462 | –
12 | CC(C)(C)C(=O)OCOP(=O)(COCCn1cnc2c(N)ncnc21)OCOC(=O)C(C)(C)C | 7.42 | 8.33 | 527 | 456 | – | –
13 | CN(C)C1CCN(C(=O)c2ccc(NC(=O)Nc3nc(N4CCOCC4)nc(N4CCOCC4)n3)cc2)CC1 | 1.86 | 3.32 | 458 | 393 | 464 | –
14 | CCC(=C/[C@H](C)C/C=C/C(C)=C/[C@@H](C)C(=O)[C@@H](C)[C@H](O)[C@@H](C)C/C(C)=C/C(=O)O)/C=C/[C@@H]1OC(=O)C=C[C@@H]1C | 13.2 | 0.00105 | 344 | 230 | 333 | –
15 | O=C1[C@H](Cc2ccc(O)cc2)N2C(=O)CCN(C(=O)NCc3ccccc3)[C@H]2CN1Cc1cccc2ccccc12 | 4.68 | 11.8 | 554 | 531 | 496 | –
16 | O=C(NOCC1CC1)c1ccc(F)c(F)c1Nc1ccc(I)cc1Cl | 16.6 | 13.2 | 527 | 485 | – | –
17 | CC(C)(O)CC[C@@H](O)[C@](C)(O)[C@H]1CC[C@@]2(O)C/3=C/C(=O)[C@@H]4C[C@@H](O)[C@@H](O)C[C@]4(C)[C@H]3CC[C@]12C | 0.372 | 0.132 | 233 | 192 | – | –
18 | CN1C(=O)C(=C/2N(C(=O)N(C3CC3)C(=O)C2=C1/NC4=CC=C(I)C=C4F)C5=CC=CC(=C5)NC(C)=O)\C | 0.0661 | 0.742 | 372 | 305 | 408 | –
19 | CC(C)(C)C[C@H]1N[C@@H](C(=O)N[C@H]2CC[C@H](O)CC2)[C@H](c2cccc(Cl)c2F)[C@@]12C(=O)Nc1cc(Cl)ccc12 | 23.5 | 1.48 | 461 | 473 | – | –

Row | Compound | AC50 viability (CU-ACC2 [1]) [µM] | AC50 viability (CU-ACC1 [2]) [µM] | area under concentration-response curve (CU-ACC2 [3]) | area under concentration-response curve (CU-ACC1 [4]) | area under concentration-response curve (NCI-H295R [5]) | AC50 viability (NCI-H295R [6]) [µM]
20 | COc1cc2c(cc1OC(C)C)[C@H](c1ccc(Cl)cc1)N(c1ccc(N(C)C[C@H]3CC[C@H](N4CCN(C)C(=O)C4)CC3)cc1)C(=O)C2 | 20.9 | 16.6 | 510 | 427 | – | –
21 | CN1\N=C(N)/C2=C[N]([C@@H]3O[C@H](CO[P](O)(O)=O)[C@@H](O)[C@H]3O)C4=C2C1=NC=N4 | 4.68 | 11.8 | 464 | 429 | 493 | –
22 | COC1=CC=C(C=C1)C/2=C/OC3=C(C(=CC(=C3)O)O)C2=O | 0.295 | 0.0661 | 164 | 267 | 208 | –
23 | CN1\C=N/C2=CC=C(NC3=CC(=CC=C3C)NC(=O)C4=CC(=CC=C4)C(C)(C)C#N)C=C2C1=O | 8.33 | 0.0934 | 499 | 445 | 518 | –
24 | O=C(CCCCCCC(=O)Nc1ccccc1)NO | 3.32 | 2.95 | 474 | 415 | – | –
25 | Cc1c[nH]c2ncnc(N3CCC(CN)(C(=O)Nc4cccc(OC(=O)N(C)C)c4)CC3)c12 | 18.6 | 10.5 | 512 | 427 and 309 | 518 and 295 | –
26 | CCCNCC(O)COc1ccccc1C(=O)CCc1ccccc1 (centres undefined) | 23.5 | 23.5 | 451 | 417 | – | –
27 | COc1cc(F)c(F)c(Nc2ccc(I)cc2F)c1N[S+](=O)([O-])C1(C[C@H](O)CO)CC1 | 6.61 | 16.6 | 476 | 421 | – | –
28 | COc1ncc(Nc2ncc(C(C)N3CCN([S+](C)(=O)[O-])CC3)cc2-c2nc(C)nc(N)n2)cc1F (centres undefined) | 0.0934 | 0.00263 | 258 | 226 | 179 | –
29 | Cc1cc(Nc2nc(N[C@@H](C)c3ccc(F)cc3)c(C#N)cc2F)n[nH]1 | 20.9 | 18.6 | 467 | 516 | – | –
30 | CC(O)c1cc(C(=O)N[C@@H](C)Cn2ccc(-c3ccc(C#N)c(Cl)c3)n2)n[nH]1 (some centres undefined) | 20.9 | 33.2 | 488 | 454 | – | –
31 | CCC[C@H](NC(=O)/C(C#N)=C/c1cccc(Br)n1)c1ccccc1 | 26.3 | 26.3 | 565 | 468 | – | –
32 | O=C(c1ccc(Nc2nc(C3CC3)cn3c(-c4cn[nH]c4)cnc23)c(F)c1)N1CCOCC1 | 14.8 | 3.32 | 343 | 366 | – | –
33 | CN\1C(=O)/C(=C(\N=C1NC[C@@H](N)CC2=CC=CC=C2)C3=CC=NC=C3)C4=CC5=C(C=CC=C5)C=C4 | 37.2 | 29.5 | 571 | 484 | – | –
34 | C[C@@H](O)[C@@H](C)Oc1nc(Nc2ccc([S+](=N)([O-])C3CC3)cc2)ncc1C(F)(F)F (some centres undefined) | 26.3 | 23.5 | 567 | 476 | – | –
35 | C[S+]([O-])c1ccc(-c2nc(-c3ccc(F)cc3)c(-c3ccncc3)[nH]2)cc1 (centres undefined) | 16.6 | 18.6 | 420 | 393 | – | –
36 | O=C(c1ccc(/C=C/c2n[nH]c3ccccc23)cc1)N1CCNCC1 | 20.9 | – | 391 | 423 | 397 | 0.263
37 | N#CC(c1ccnc(NCCc2cccnc2)n1)c1nc2ccccc2s1 (centres undefined) | 16.6 | – | 493 | 509 | 410 | 20.9
38 | CN1C(=O)c2sccc2N(C)c2nc(Nc3ccc([S+](N)(=O)[O-])cc3)ncc21 | 14.8 | – | 467 | 460 | 431 | 5.25

Row | Compound | AC50 viability (CU-ACC2 [1]) [µM] | AC50 viability (CU-ACC1 [2]) [µM] | area under concentration-response curve (CU-ACC2 [3]) | area under concentration-response curve (CU-ACC1 [4]) | area under concentration-response curve (NCI-H295R [5]) | AC50 viability (NCI-H295R [6]) [µM]
39 | Cc1cnc(Nc2ccc(F)cc2Cl)nc1-c1c[nH]c(C(=O)N[C@H](CO)c2cccc(Cl)c2)c1 | 18.6 | – | 572 | 500 | 532 | 26.3
40 | COC1=CC=C2Nc3cc(Cl)ccc3C(N=C3C=C(CN4CCCC4)C(=O)C(CN4CCCC4)=C3)=C2N1 | 23.5 | 18.6 | 528 | 477 | – | –
41 | COc1ccc([S+](=O)([O-])N(C(C)=O)c2ccccc2/C=C/c2cc[n+]([O-])cc2)cc1 | 20.9 | – | 557 | 482 | 506 | 5.25
42 | CN[C@@H](C)C(=O)N[C@H]1CCCC[C@H]2CC[C@@H](C(=O)N[C@@H](c3ccccc3)c3cn(CCCCc4ccc(CCCCn5cc([C@@H](NC(=O)[C@@H]6CC[C@@H]7CCCC[C@H](NC(=O)[C@H](C)NC)C(=O)N76)c6ccccc6)nn5)cc4)nn3)N2C1=O | 0.332 | 0.166 | 303 | 260 | – | –
43 | COc1cc2ncn(-c3cc(OCc4ccccc4[S+](C)(=O)[O-])c(C#N)s3)c2cc1OC | 33.2 | – | 399 | 351 | 376 | 37.2
44 | C[C@@H]1CC[C@@]2(CC[C@]3(C)\C(=C/C[C@@H]4[C@@]5(C)C[C@@H](O)[C@H](O)[C@@](C)(CO)[C@@H]5CC[C@@]34C)[C@@H]2[C@H]1C)C(O)=O | 1.18 | – | 410 | 371 | 354 | 2.35
45 | Cc1ccc(-n2nc(C(C)(C)C)cc2N/C(O)=N/Cc2cc(F)ccc2Oc2ccc3c(cnn3CCO)c2)cc1 | 20.9 | – | 549 | 518 | 522 | 33.2
46 | CN1CCC(C1CO)C2=C(O)C=C(O)C3=C2O\C(=C/C3=O)C4=CC=CC=C4Cl (centres undefined) | 0.833 | – | 417 | 431 | 422 | 3.32
47 | Cc1nc([C@](C)(O)CO)sc1-c1cnc(N)c(O[C@H](C)c2cc(F)ccc2-n2nccn2)c1 | 1.86 | – | 520 | 480 | 421 | 2.63
48 | COc1cc2c(N3CCN(C(=O)Nc4ccc(OC(C)C)cc4)CC3)ncnc2cc1OCCCN1CCCCC1 | 7.42 | 16.6 | 457 | 401 | – | –
49 | COc1cccc([C@@H](C)NCCCc2ccccc2Cl)c1 | 23.5 | 20.9 | 584 | 462 | – | –
50 | CC(=O)O[C@@]12CO[C@@H]1C[C@H](O)[C@@]1(C)C(=O)[C@H](O)C3=C(C)[C@@H](OC(=O)[C@H](O)[C@@H](NC(=O)OC(C)(C)C)c4ccccc4)C[C@@](O)([C@@H](OC(=O)c4ccccc4)[C@H]21)C3(C)C | 20.9 | – | 334 | 302 | 270 | 0.417
51 | N=C(NCCCCCCNC(=N)NC(=N)Nc1ccc(Cl)cc1)NC(=N)Nc1ccc(Cl)cc1 | 23.5 | – | 573 | 511 | 443 | 14.8
52 | Cc1cc(Nc2ncc(Cl)c(Nc3ccccc3[S+](=O)([O-])C(C)C)n2)c(OC(C)C)cc1C1CCNCC1 | 16.6 | – | 495 | 439 | 419 | 5.9
53 | O=C(CC12CC3CC(CC(C3)C1)C2)Nc1cccc2nc(NCCNCCO)ccc12 | 23.5 | 26.3 | 537 | 473 | – | –
54 | Cn1ncc(Cl)c1-c1cc(C(=O)N[C@H](CN)Cc2ccc(F)c(F)c2)sc1Cl | 14.8 | – | 550 | 488 | 473 | 14.8
55 | CC/C(=C(/c1ccc(O)cc1)c1ccc(OCCNC)cc1)c1ccccc1 | 9.34 | – | 403 | 393 | 359 | 7.42
56 | Cc1cc2c(C(C)C)c(O)c(O)c(C=O)c2c(O)c1-c1c(C)cc2c(C(C)C)c(O)c(O)c(C=O)c2c1O | 23.5 | 26.3 | 596 | 529 | – | –
57 | COc1ccc(CNc2nc(N(CCO)CCO)nc3c2ncn3C(C)C)cc1 | 7.42 | 14.8 | 502 | 438 | – | –
